Our source for the MIC values is DBAASP.

Converted amounts (≈) assume the structure as drawn.

In general, MIC refers to the lowest concentration found to suppress growth.

Some test systems named below: Candida krusei ATCC 6258; Candida tropicalis; Candida parapsilosis; Candida albicans; Candida krusei.
What all share (assay): ≥ marks a high value that may be exact or a test limit, other limits are often not marked, values filed in µg/mL are converted to µM
Experiment [1] has as its system Escherichia coli ATCC 25922.
Experiment [2] concerns Candida parapsilosis ATCC 22019.
The test system of experiment [3] is Pseudomonas aeruginosa ATCC 27853.
Experiment [4] has as its system Staphylococcus aureus NCTC 8325.
Experiment [5] concerns Batrachochytrium dendrobatidis JEL-197.
The subject of experiment [6] is Proteus mirabilis ATCC 25933.
For experiment [7], the system named is Klebsiella pneumoniae KK3 9904.
The test system of experiment [8] is Staphylococcus epidermidis RP62A.
Experiment [9] concerns Enterococcus faecalis ATCC 29212.
For experiment [10], the system named is Enterobacter cloacae HNTCC 53001.
Experiment [11] has as its system Candida albicans ATCC 90028.
Experiment [12] concerns Bordetella bronchiseptica CUN 11844-99.
Experiment [13] deals with Acinetobacter baumannii ATCC 19606.
Experiment [14] relates to Staphylococcus aureus ATCC 25923.
The test system of experiment [15] is Staphylococcus aureus ATCC 43300.
Experiment [16] relates to Stenotrophomonas maltophilia CUN 3998-00.
The subject of experiment [17] is Staphylococcus aureus CUN 3792-99.
The test system of experiment [18] is Pseudomonas aeruginosa CUN 4158-02.
Experiment [19] deals with Candida albicans ATCC 14053.
The test system of experiment [20] is Staphylococcus epidermidis ATCC 12228.
The subject of experiment [21] is Staphylococcus aureus ATCC 29213.
In experiment [22] the test system is Pseudomonas aeruginosa ATCC 15442.
Experiment [23] relates to Escherichia coli ATCC 43827.
Experiment [24] concerns Cronobacter sakazakii ATCC 29544.
Experiment [25] has as its system Candida glabrata ATCC 2001.
Experiment [26] relates to Staphylococcus aureus CCT 2580.
For experiment [27], the system named is Escherichia coli CCT 1457.
The test system of experiment [28] is Bacillus cereus ATCC 11778.
For experiment [29], the system named is Klebsiella pneumoniae ATCC 700603.
Experiment [30] concerns Candida tropicalis ATCC 750.

For `CC[C@H](C)[C@H](NC(=O)[C@@H]1CCCN1C(=O)[C@H](CC(C)C)NC(=O)[C@@H](N)Cc1ccccc1)C(=O)N[C@@H](CC(C)C)C(=O)N[C@@H](C)C(=O)N[C@@H](CO)C(=O)N[C@@H](CC(C)C)C(=O)N[C@@H](C)C(=O)N[C@@H](C)C(=O)N[C@@H](CCCCN)C(=O)N[C@@H](Cc1ccccc1)C(=O)NCC(=O)N1CCC[C@H]1C(=O)N[C@@H](CCCCN)C(=O)N[C@@H](CC(C)C)C(=O)N[C@@H](Cc1ccccc1)C(=O)N[C@H]1CSSC[C@@H](C(=O)O)NC(=O)[C@H](CCCCN)NC(=O)[C@H](CCCCN)NC(=O)[C@H]([C@@H](C)O)NC(=O)[C@H](C(C)C)NC(=O)[C@H](CC(C)C)NC1=O` [FLPILASLAAKFGPKLFCLVTKKC], the minimum inhibitory concentration (MIC) against Candida krusei ATCC 6258 was determined as 5 µM (≈ 13 µg/mL); against Candida tropicalis, 5 µM (≈ 13 µg/mL); in [1] it was 17 µM (≈ 44.3 µg/mL); in [2] it was 5 µM (≈ 13 µg/mL); against Candida parapsilosis it was 10 µM (≈ 26.1 µg/mL); in experiment [3] it was 10 µM (≈ 26.1 µg/mL). Also, the minimum inhibitory concentration (MIC) in [4] was 2 µM (≈ 5.21 µg/mL); in experiment [5], 12.5 µM (≈ 32.6 µg/mL); in [6] it was no less than 40 µM; in [7], no less than 40 µM; in experiment [8], 5 µM (≈ 13 µg/mL); in experiment [9], 5 µM (≈ 13 µg/mL). Further, the MIC in experiment [10] stood at 10 µM (≈ 26.1 µg/mL); with Candida albicans, 5 µM (≈ 13 µg/mL); against Candida krusei, 10 µM (≈ 26.1 µg/mL); in experiment [11] it was 3 µM (≈ 7.82 µg/mL).
For `NCCCC[C@H](NC(=O)[C@H](Cc1ccccc1)NC(=O)[C@H](CCCN=C(N)N)NC(=O)[C@H](CCCN=C(N)N)NC(=O)[C@H](CS)NC(=O)CN)C(=O)N[C@@H](CCCCN)C(=O)N[C@@H](Cc1ccccc1)C(=O)N[C@@H](CCCCN)C(=O)N[C@@H](CCCCN)C(=O)N[C@@H](Cc1c[nH]c2ccccc12)C(=O)N[C@@H](CCCN=C(N)N)C(=O)N[C@@H](Cc1ccc(O)cc1)C(=O)N[C@@H](CCCN=C(N)N)C(=O)NCC(=O)N[C@@H](CCCN=C(N)N)C(=O)N[C@@H](Cc1ccccc1)C(=O)N[C@@H](Cc1c[nH]c2ccccc12)C(=O)N[C@@H](Cc1ccccc1)C(=O)N[C@@H](Cc1c[nH]c2ccccc12)C(=O)N[C@@H](CS)C(=O)N[C@@H](Cc1ccccc1)C(=O)NCC(N)=O` [GCRRFKKFKKWRYRGRFWFWCFG], the MIC came to 10.2 µM (≈ 32 µg/mL) in [12]; 20.3 µM (≈ 64 µg/mL) in experiment [13]; 20.3 µM (≈ 64 µg/mL) in experiment [14]; 10.2 µM (≈ 32 µg/mL) in experiment [15]; 20.3 µM (≈ 64 µg/mL) in experiment [1]; 20.3 µM (≈ 64 µg/mL) in experiment [16]. Moreover, the minimal inhibitory concentration (MIC) is 20.3 µM (≈ 64 µg/mL) in experiment [17], 40.7 µM (≈ 128 µg/mL) in [3] and no less than 40.7 µM in experiment [18].
As to `CC[C@H](C)[C@H](N)C(=O)N[C@@H](CC(N)=O)C(=O)N[C@@H](Cc1c[nH]c2ccccc12)C(=O)N[C@@H](CC(C)C)C(=O)N[C@@H](CCCCN)C(=O)N[C@@H](CC(C)C)C(=O)NCC(=O)N[C@@H](CCCCN)C(=O)N[C@@H](CCSC)C(=O)N[C@H](C(=O)N[C@H](C(=O)N[C@@H](CC(=O)O)C(=O)N[C@@H](C)C(=O)N[C@@H](CC(C)C)C(N)=O)[C@@H](C)CC)C(C)C` [INWLKLGKMVIDAL], the MIC is 16 µM (≈ 25.8 µg/mL) in experiment [19]; 8 µM (≈ 12.9 µg/mL) with Candida krusei ATCC 6258; 8 µM (≈ 12.9 µg/mL) in experiment [1]; 4 µM (≈ 6.45 µg/mL) in [20]; 16 µM (≈ 25.8 µg/mL) in experiment [2]; 4 µM (≈ 6.45 µg/mL) in experiment [21]. For the same compound, the MIC is no less than 38.4 µM in experiment [22]; 8 µM (≈ 12.9 µg/mL) in [3]; 8 µM (≈ 12.9 µg/mL) in experiment [23]; 16 µM (≈ 25.8 µg/mL) in experiment [24]; 8 µM (≈ 12.9 µg/mL) in experiment [25]; 2.48 µM (≈ 4 µg/mL) in experiment [26]. Further, the MIC in experiment [27] was determined as 4.96 µM (≈ 8 µg/mL); in experiment [28], 4.96 µM (≈ 8 µg/mL); in experiment [29] it was 4 µM (≈ 6.45 µg/mL); in [30] it was 2 µM (≈ 3.23 µg/mL).
